Patent US20230064990A1, “DOSING REGIMENS AND METHODS FOR TREATING CANCER” (Panbela Therapeutics, Inc., priority 2020, published 2023)

Experiments:
[1] = Phase 1a/1b study in combination with G and A, safety; assay type: in vivo, human; conditions: N=20
Protocol: G (1000 mg/m^2) and A (125 mg/m^2) were administered intravenously on Days 1, 8, and 15 of each cycle. […] PK was evaluated on day 1 of cycle 1. Efficacy was assessed by CA19-9 levels, objective response was assessed by RECIST criteria, progression-free survival (PFS) and overall survival (OS).
This is a multicenter, open label, Phase 1a/1b study to evaluate to evaluate the safety, tolerability, pharmacokinetics and efficacy of (S,S)-(HO)2DEHSPM when administered in combination with G and A as first-line therapy in pancreatic cancer patients previously untreated for metastatic disease. The objective was to determine a recommended Phase 2 dose. Using a modified 3+3 dose escalation scheme, cohorts of subjects were dosed with subcutaneous injections of (S,S)-(HO)2DEHSPM at 0.2, 0.4 or 0.6 mg/kg days 1-5 of each 28-day cycle. Gemcitabine (1000 mg/m^2) and A (125 mg/m^2) were administered intravenously on Days 1, 8, and 15 of each cycle. […] PK was evaluated on day 1 of cycle 1. Efficacy was assessed by objective response rate (ORR) using RECIST criteria and by changes in CA19-9 levels. Subjects were treated until disease progression or the development of dose-limiting toxicity. Based upon initial safety findings and preliminary signals of efficacy, the protocol was amended to evaluate progression-free survival (PFS) and overall survival (OS) and expand the study to up to 36 subjects at the recommended Phase 2 dose. To date, 20 subjects were enrolled in cohorts 1-3 and evaluated for dose limiting toxicity and early signals of efficacy.

[2] = system: human L3.6pl pancreatic cancer cells; assay: Orthotopic implantation of L3.6pl pancreatic cancer cells into nude mice; conditions: Study 3, GEM 100 mg/kg 2×/wk ip, (S,S)-(HO)2DEHSPM 25 mg/kg 3×/wk
Protocol: These studies examined the anti-neoplastic effects of subcutaneous administration of (S,S)-(HO)2DEHSPM following orthotopic implantation of human L3.6pl pancreatic cancer cells into the pancreas of nude mice.
L3.6pl cells were injected into the pancreas of nude mice; treatment was initiated by group (n=10/group planned) 7-10 days later following establishment of tumors:
Study 1: saline (control), (S,S)-(HO)2DEHSPM (25 mg/kg), (S,S)-(HO)2DEHSPM (50 mg/kg), and (S,S)-(HO)2DEHSPM (100 mg/kg) daily (QD) for 4 to 6 weeks (wks).
Study 2: saline (control), (S,S)-(HO)2DEHSPM (25 mg/kg QD), (S,S)-(HO)2DEHSPM (25 mg/kg 3×/wk), (S,S)-(HO)2DEHSPM (15 mg/kg 3×/wk), and (S,S)-(HO)2DEHSPM (5 mg/kg 3×/wk) for 4 to 6 wks.
Study 3: saline (control), gemcitabine (GEM) (100 mg/kg 2×/wk, intraperitoneally), (S,S)-(HO)2DEHSPM (25 mg/kg 3×/wk), and (S,S)-(HO)2DEHSPM+GEM for 4 to 6 wks.

PDA = conditions: pivotal trials; cited from earlier work

Compound | Grade ≥3 Elevated LFTs related to the named study medication (subjects) [1] | decreases in body weight ([2]; 4 to 6 wks) [%] | decreases in pancreas weight ([2]; compared with controls) [%] | decreases in tumor volume ([2]; compared with controls) [%] | DCR, historical rate (PDA) [%] | ORR, historical rate (PDA) [%]
Nc1ccn([C@@H]2O[C@H](CO)[C@@H](O)C2(F)F)c(=O)n1 [GEM, gemcitabine, reference compound] | 1 (G) | 18.7 | 24.7 | 37.8 | – | –
FOLFIRINOX | – | – | – | – | 70 | 32
